{
  "source": "paper PMC8880385",
  "about": "(Pharmaceuticals, 2022)",
  "key": {"[1]": {"system": "Loa loa mf", "assay": "Loa loa microfilariae motility counter-screen", "type": "cell-based", "settings": "Loa loa, 120 h, Day 5", "experimental": "To assess the effects of the compounds on O. ochengi mf, the mf were harvested from infected cow skin and cultured (10–15 mf per well) in 100 µL media in 96-well plates with a confluent feeder layer of monkey kidney epithelial cells (MK2) as previously described. […] All compounds were also counter-screened with L. loa mf collected from infected individuals with approval from the University of Buea (IRB approval # 964-19). Mf were separated from blood cells using a Percoll gradient as previously described and set up for assays (10–15 mf per well)."}, "[2]": {"system": "Brugia pahangi female worms", "assay": "Ex vivo microfilarial release and embryograms of female worms from treated gerbils", "type": "in vivo", "settings": "females from gerbils treated IP 1 mg/kg", "experimental": "To test the effects of the compounds on female worm fertility, all surviving female worms were examined ex vivo to quantify the amount of mf released and profile the various stages of embryonic development within the uteri of individual female worms. After necropsy, female worms were incubated in individual wells of a 24-well plate with 2 mL Brugia culture media at 37 °C and 5% CO2. After 24 h, the number of mf released by each adult female was determined by counting the mf in a 0.5 mL sample of the media and multiplying by 4 to calculate the total number of mf. Additionally, embryogram analyses on the individual female worms was performed as described. […] The embryonic developmental stages (eggs, embryos, pre-mf and mf) were determined in two 10 μL aliquots using a compound microscope and hemocytometer. A minimum of 200 events were assessed from each female worm and at least 3 females were analyzed per animal from at least 3 animals per treatment group. The intra-uterine embryogram was expressed as the relative proportions of different stages of development: eggs, embryos, pre-mf, stretched mf and deformed embryos in the total number of events.\nWorm burden, peritoneal mf counts, overnight mf sheds and qPCR data were analyzed using a Kruskal–Wallis test followed by Dunn’s multiple comparison. […] All statistical analyses were determined using Prism 8 version 8.2.0(272)."}, "[3]": {"system": "Brugia pahangi adult females", "assay": "In vitro motility assay with adult female Brugia pahangi (Worminator)"}, "[4]": {"system": "Brugia pahangi", "assay": "Brugia pahangi/gerbil model of infection: worm and peritoneal mf counts at necropsy", "type": "in vivo", "settings": "gerbil, 1 mg/kg IP once a day for 5 days, necropsy 13 weeks post-first dose; mean (SEM)", "experimental": "Male Mongolian gerbils 50–60 g, 5–7 weeks in age (Meriones unguiculatus, Charles River Laboratories International, Inc., Wilmington, MA, USA) were injected intraperitoneally (IP) with 200 third-larval stage B. pahangi and treated a minimum of 3 months later when larvae developed into adult worms.\nAnimals were given IP doses of 1 mg/kg once a day for 5 days based on in vivo studies by Jones et al., 2009 [14] and gerbil PK analyses. Compounds are light sensitive and were shielded from light during formulation. Animals were necropsied 13 weeks post-first dose, and peritoneal cavities were washed with 100 mL of PBS to collect adult worms and mf that had been released from female worms. Adult worms were separated by sex, counted, and processed for subsequent analyses. Mf from the peritoneal cavities were quantified by mixing peritoneal wash 9:1 (v/v) with 0.04% methylene blue:water and counted using an inverted microscope.\nWorm burden, peritoneal mf counts, overnight mf sheds and qPCR data were analyzed using a Kruskal–Wallis test followed by Dunn’s multiple comparison. To determine significant differences in embryograms, a two-way ANOVA was conducted with a Dunnett’s multiple comparisons test, and significance levels were determined based on comparisons with vehicle treated animals. All statistical analyses were determined using Prism 8 version 8.2.0(272)."}, "[5]": {"system": "O. ochengi adult females", "assay": "O. ochengi adult female viability (MTT) assay", "type": "cell-based", "settings": "Onchocerca ochengi, 168 h; Day 7, MTT; read-out: O. ochengi Adult Females Inhibition of Survival Day 7 IC50", "from_the_text": "As humans are the only hosts for O. volvulus which are unavailable for screening, drug discovery relies on the surrogate filarial parasites Brugia spp. and cattle Onchocerca spp. Prioritized compounds from the Brugia worm screens were further tested with female and male adult O. ochengi as well as O. ochengi and L. loa mf.\nFor these assays, O. ochengi adults were extracted from the subcutaneous nodules of infected cow skins purchased from the local slaughterhouse (Douala, Littoral Region, Cameroon) and incubated in 4 mL complete culture media comprised of RPMI-1640 (Sigma-Aldrich), 5% newborn calf serum, 200 units/mL penicillin, 200 μg/mL streptomycin and 2.5 μg/mL amphotericin B (Sigma-Aldrich) in 12-well plates overnight to validate sterility prior to the assays. Four to eight O. ochengi adult masses were treated individually the following day with a serial dilution of each compound, and controls were treated with 1% DMSO. While in culture, the male worms normally egress from the nodules into the surrounding media and thus can be monitored in parallel for motility. The O. ochengi adult masses were incubated at 37 °C with 5% CO2 for the duration of the assay. Male motility within each well was visually scored every day and over 5 days after compound addition, and female viability within the nodules was assessed by MTT after 7 days as previously described. The O. ochengi adult masses containing female worms were individually placed in wells of a 48-well plate with 0.5 mL of 0.5 mg/mL MTT in PBS and incubated at 37 °C for 30 min. […] Prism 4.0 for Windows was used to calculate IC50s."}, "[6]": {"system": "O. volvulus pre-adult L5", "assay": "O. volvulus pre-adult (Ov L5) motility assay", "type": "cell-based", "settings": "Onchocerca volvulus, 504 h; on Day 21; read-out: O. volvulus L5 Inhibition of Motility IC50"}, "[7]": {"assay": "Gerbil liver microsome stability assay", "type": "in vitro ADME", "experimental": "Microsomal stability was tested using 1 µM of each test compound in a 96-well plate containing 0.5 mg/mL gerbil liver microsomes, 1 mM NADPH and/or UDPGA with alamethicin in a buffer of 100 mM potassium phosphate with 3 mM magnesium chloride at pH 7.4. Verapamil was used as a positive control. Reactions were incubated at 37 °C, and 100% acetonitrile with 0.1% formic acid was added at 0, 15, 30 and 60 min timepoints to stop the reaction. Samples were then separated over a Waters Atlantis T3 dC18 reverse phase HPLC column with 0.1% formic acid in water and 0.1% formic acid in acetonitrile. Samples were analyzed using an AB Sciex API 4000 LC–MS/MS."}},
  "note": "Entries after “also recorded” stand apart in the source; their conditions may differ.",
  "data": [
    {"smiles": "Cc1ccc2c(ccc(/C=C/c3c(C)nn(-c4ccccc4)c3C)[n+]2C)c1.[I-]", "note": "[Analog 06, 2-[(E)-2-(3,5-dimethyl-1-phenyl-1H-pyrazol-4-yl)ethenyl]-1,6-dimethylquinolin-1-ium iodide]", "values": [
      {"measurement": "inhibition at 10 µM", "setting": "[1]", "value": 88, "unit": "%"},
      {"measurement": "Deformed embryos in gonads of female worms (embryogram) vs vehicle", "setting": "[2]", "value": "statistically significant increase in the number of deformed embryos"},
      {"measurement": "Mf released by female worms after 24 h ex vivo (overnight shed) vs vehicle", "setting": "[2]", "value": "significantly lower numbers of mf; also recorded: significantly reduced"},
      {"measurement": "Brugia Adult Females Inhibition of Motility Day 3 @ 1 µM", "setting": "[3]; 1 µM, Day 3, 1 µM", "value": 71, "unit": "%"},
      {"measurement": "inhibition at 1 µM", "setting": "[3]; Brugia pahangi, 72 h, read-out: Brugia Adult Females Inhibition of Motility Day 3 @ 1 µM, 1 µM, Day 3", "value": "> 70", "unit": "%"},
      {"measurement": "IC50", "setting": "[3]; Brugia pahangi, 72 h, read-out: Brugia Adult Females Inhibition of Motility Day 3 IC50", "value": 733, "unit": "nM"},
      {"measurement": "Brugia Adult Females Inhibition of Motility Day 3 IC50", "setting": "[3]; Day 3", "value": "sub-micromolar range"},
      {"measurement": "Adult worms per animal", "setting": "[4]", "value": "31.3 (11.8)"},
      {"measurement": "Female worms per animal", "setting": "[4]", "value": "15.9 (5.7)"},
      {"measurement": "Male worms per animal", "setting": "[4]", "value": "15.4 (6.1)"},
      {"measurement": "Mf per animal (peritoneal cavity)", "setting": "[4]", "value": "915,000 (263,235)"},
      {"measurement": "IC50", "setting": "[5]", "value": 2990, "unit": "nM"},
      {"measurement": "IC50", "setting": "[6]", "value": 220, "unit": "nM"},
      {"measurement": "CLint", "setting": "[7]; gerbil liver microsomes", "value": 0.933, "unit": "µL/min/mg Protein"},
      {"measurement": "half-life at 1 µM", "setting": "[7]; pH 7.4, 1 µM compound, 0.5 mg/mL microsomes, read-out: Gerbil Liver Microsome T1/2", "value": 24.7, "unit": "h"}
    ]}
  ]
}
